The values below come from patent publication US5707798A, “Identification of ligands by selective amplification of cells transfected with receptors” (priority 1994, dated 1998).

A word on the EC50: it is the midpoint of the concentration-response curve. The term Ki denotes a measure of affinity in units of concentration, obtained from inhibition or displacement.

For test [1], the target named is T1, m2 muscarinic receptor (Homo sapiens, UniProt P08172).
T1 construct: expressed in transfected cells; host or cells: NIH 3T3 (mouse fibroblasts)
T1 sequence (P08172 1-466): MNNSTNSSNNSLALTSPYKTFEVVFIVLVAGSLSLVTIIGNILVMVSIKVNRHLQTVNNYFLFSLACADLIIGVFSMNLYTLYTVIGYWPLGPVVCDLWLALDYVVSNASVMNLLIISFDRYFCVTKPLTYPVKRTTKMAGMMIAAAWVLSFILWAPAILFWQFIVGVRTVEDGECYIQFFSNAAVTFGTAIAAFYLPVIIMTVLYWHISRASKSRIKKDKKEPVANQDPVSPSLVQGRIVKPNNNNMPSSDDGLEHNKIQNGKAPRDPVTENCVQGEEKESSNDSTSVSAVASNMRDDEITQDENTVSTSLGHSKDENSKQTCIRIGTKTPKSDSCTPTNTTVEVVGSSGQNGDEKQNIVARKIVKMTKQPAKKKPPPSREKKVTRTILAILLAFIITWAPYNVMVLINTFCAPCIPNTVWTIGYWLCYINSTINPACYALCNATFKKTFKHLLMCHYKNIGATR
Put plainly: cell-based. The test is classed as cell-based.

The target in test [2] is T2, m5 muscarinic receptor (Homo sapiens, UniProt P08912).
T2 construct: expressed in transfected cells; host or cells: NIH 3T3 (mouse fibroblasts)
T2 sequence (P08912 1-532): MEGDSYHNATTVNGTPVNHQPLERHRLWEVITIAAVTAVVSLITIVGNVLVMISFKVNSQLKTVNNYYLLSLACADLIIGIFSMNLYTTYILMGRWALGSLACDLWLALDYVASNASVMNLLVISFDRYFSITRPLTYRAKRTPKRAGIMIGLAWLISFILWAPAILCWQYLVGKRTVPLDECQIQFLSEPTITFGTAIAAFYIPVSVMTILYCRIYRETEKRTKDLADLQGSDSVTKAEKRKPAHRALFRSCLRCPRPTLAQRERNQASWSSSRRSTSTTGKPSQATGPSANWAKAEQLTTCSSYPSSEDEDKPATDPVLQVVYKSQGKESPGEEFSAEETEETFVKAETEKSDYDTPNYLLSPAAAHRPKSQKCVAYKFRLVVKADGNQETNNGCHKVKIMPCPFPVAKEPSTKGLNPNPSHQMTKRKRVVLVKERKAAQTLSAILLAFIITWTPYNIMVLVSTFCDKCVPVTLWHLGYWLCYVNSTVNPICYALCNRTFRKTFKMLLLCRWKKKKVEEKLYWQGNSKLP
The test is classed as cell-based.

Test [3] deals with T1, m2 muscarinic receptor. The test can be described thus: β-galactosidase levels, m2 receptor in the absence of expressed G-protein. In kind it is cell-based.
A further test deals with NIH 3T3 cells. The test can be described thus: Amplification response in the absence of the indicated target receptor. The test is classed as cell-based, mouse. The following applies: absence of the ligand's target receptor. Here is the method:
FIG. 16 illustrates the maximal ligand-induced responses of the indicated receptors, as assayed using cotransfected cultures using a Multiple Receptor Format similar to that described in FIG. 11. […] Cells were incubated in wells of a 96 well plate for 4 days with each ligand. Maximal responses were calculated by fitting the data to a model of a single mass-action site.

Test [4] has as its target T2, m5 muscarinic receptor. Put plainly: Focus induction in NIH 3T3 cells transfected with m5 DNA. In kind it is cell-based. Conditions: low concentrations.
Test [5] has as its system Muscarinic acetylcholine receptors that stimulate phospholipase c (m1, m3, m5). The following applies: cited from earlier work.
Another test concerns the target T3, EP3 prostanoid receptor (Homo sapiens, UniProt P43115).
T3 construct: expressed in transfected cells; host or cells: NIH 3T3 (mouse fibroblasts, ATCC CRL 1658)
T3 sequence (P43115 1-390): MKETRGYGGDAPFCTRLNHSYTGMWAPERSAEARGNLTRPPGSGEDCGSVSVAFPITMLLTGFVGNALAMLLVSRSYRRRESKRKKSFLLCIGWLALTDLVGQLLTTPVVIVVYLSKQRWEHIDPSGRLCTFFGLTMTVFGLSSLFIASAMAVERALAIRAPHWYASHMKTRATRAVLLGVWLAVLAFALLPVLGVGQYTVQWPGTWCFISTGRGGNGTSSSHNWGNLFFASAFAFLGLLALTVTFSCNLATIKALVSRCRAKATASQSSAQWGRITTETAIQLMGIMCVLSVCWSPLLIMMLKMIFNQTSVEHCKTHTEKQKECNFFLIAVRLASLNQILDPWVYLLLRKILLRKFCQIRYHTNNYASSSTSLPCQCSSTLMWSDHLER
In kind it is cell-based. The following applies: EP3, Table 2; read-out: Ligand EC50.

The target of a further test is trk C receptor. Details: Rmax: key to the marks not given beside the values.
The target in the next test is trk A receptor. Conditions: Table 2.
The target in test [6] is T4, alpha 2 C10 adrenergic receptor (Homo sapiens, UniProt P08913).
T4 construct: expressed in transfected cells; host or cells: NIH 3T3 (mouse fibroblasts)
T4 sequence (P08913 1-465): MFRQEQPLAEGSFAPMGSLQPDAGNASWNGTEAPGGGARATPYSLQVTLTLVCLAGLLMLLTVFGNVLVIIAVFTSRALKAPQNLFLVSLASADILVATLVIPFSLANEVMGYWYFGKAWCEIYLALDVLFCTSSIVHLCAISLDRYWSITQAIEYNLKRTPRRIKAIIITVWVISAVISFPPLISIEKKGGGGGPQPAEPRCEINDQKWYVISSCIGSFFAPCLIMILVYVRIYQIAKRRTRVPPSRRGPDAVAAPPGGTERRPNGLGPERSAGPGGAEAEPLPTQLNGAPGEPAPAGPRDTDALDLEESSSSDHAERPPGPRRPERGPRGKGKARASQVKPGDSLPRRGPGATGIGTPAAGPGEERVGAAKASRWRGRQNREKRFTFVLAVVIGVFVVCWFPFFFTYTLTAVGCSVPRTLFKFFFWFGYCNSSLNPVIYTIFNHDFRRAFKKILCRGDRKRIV
In kind it is cell-based. The following applies: α2-C10, Table 3.

The target in test [7] is T5, alpha 2 C4 adrenergic receptor (Homo sapiens, UniProt P18825).
T5 construct: expressed in transfected cells; host or cells: NIH 3T3 (mouse fibroblasts)
T5 sequence (P18825 1-462): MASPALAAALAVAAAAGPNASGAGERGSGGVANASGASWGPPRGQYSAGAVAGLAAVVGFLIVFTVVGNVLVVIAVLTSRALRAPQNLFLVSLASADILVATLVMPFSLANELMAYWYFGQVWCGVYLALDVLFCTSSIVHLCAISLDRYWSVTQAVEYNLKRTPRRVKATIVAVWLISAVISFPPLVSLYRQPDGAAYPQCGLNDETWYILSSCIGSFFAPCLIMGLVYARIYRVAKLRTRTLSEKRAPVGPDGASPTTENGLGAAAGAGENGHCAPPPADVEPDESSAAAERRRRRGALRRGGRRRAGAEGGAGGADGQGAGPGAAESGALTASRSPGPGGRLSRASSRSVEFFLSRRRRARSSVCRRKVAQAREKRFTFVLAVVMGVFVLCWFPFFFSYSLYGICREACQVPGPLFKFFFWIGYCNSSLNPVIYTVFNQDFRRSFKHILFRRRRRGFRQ
The test is classed as cell-based. Conditions: α2-C4, Table 3.

Test [8] addresses T6, alpha 2 C2 adrenergic receptor (Homo sapiens, UniProt P18089).
T6 sequence (P18089 1-450): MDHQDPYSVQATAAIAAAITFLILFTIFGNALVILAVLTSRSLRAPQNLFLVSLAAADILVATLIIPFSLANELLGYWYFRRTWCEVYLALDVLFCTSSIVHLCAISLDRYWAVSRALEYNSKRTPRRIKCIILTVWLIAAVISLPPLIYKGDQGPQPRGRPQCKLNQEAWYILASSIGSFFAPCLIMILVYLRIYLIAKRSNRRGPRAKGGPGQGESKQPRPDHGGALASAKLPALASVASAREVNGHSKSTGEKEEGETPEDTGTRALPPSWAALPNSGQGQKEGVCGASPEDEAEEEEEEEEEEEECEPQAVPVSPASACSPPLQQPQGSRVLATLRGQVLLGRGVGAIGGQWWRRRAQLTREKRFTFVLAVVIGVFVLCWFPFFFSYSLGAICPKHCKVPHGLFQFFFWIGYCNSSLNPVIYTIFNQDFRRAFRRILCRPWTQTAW
In kind it is cell-based. Conditions: α2-C2, Table 3.

Test [9] addresses T1, m2 muscarinic receptor. Put plainly: cell-based.
Test [10] deals with T2, m5 muscarinic receptor. In kind it is cell-based. The source holds these as a separate data set.
The next test concerns the target T7, m1 muscarinic receptor (Homo sapiens, UniProt P11229).
T7 sequence (P11229 1-460): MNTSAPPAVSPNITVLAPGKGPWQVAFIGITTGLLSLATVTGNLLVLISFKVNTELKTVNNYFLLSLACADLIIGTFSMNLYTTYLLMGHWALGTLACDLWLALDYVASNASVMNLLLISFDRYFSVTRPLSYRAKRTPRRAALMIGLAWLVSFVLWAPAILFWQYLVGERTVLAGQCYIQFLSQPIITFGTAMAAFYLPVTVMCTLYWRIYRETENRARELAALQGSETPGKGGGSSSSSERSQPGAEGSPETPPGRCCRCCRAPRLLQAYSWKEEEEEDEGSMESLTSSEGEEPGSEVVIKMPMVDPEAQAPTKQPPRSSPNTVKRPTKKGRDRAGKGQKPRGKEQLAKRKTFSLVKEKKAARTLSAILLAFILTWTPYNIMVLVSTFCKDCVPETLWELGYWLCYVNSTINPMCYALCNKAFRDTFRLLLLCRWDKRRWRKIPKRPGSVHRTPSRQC
The test can be described thus: cell-based.

The target in another test is m3 muscarinic receptor (Homo sapiens, UniProt P20309). The test can be described thus: cell-based.
Chain of m3 muscarinic receptor (P20309 whole entry): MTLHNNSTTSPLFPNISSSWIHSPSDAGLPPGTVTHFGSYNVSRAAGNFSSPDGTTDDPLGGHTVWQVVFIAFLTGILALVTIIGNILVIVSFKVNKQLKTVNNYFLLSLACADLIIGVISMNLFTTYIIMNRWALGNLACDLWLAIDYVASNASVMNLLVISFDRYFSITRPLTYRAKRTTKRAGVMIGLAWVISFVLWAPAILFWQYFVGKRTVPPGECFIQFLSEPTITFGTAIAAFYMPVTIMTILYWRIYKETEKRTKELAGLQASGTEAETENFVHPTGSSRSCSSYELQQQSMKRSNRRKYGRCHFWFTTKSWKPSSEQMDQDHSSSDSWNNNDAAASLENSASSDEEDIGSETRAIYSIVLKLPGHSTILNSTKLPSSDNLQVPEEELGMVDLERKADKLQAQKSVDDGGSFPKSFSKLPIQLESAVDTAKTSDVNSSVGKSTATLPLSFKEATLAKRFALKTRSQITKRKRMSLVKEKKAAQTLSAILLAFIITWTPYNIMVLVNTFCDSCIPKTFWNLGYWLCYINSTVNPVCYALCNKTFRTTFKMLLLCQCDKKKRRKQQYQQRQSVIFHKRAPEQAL
A further test concerns the target T8, m4 muscarinic receptor (Homo sapiens, UniProt P08173).
T8 sequence (P08173 1-479): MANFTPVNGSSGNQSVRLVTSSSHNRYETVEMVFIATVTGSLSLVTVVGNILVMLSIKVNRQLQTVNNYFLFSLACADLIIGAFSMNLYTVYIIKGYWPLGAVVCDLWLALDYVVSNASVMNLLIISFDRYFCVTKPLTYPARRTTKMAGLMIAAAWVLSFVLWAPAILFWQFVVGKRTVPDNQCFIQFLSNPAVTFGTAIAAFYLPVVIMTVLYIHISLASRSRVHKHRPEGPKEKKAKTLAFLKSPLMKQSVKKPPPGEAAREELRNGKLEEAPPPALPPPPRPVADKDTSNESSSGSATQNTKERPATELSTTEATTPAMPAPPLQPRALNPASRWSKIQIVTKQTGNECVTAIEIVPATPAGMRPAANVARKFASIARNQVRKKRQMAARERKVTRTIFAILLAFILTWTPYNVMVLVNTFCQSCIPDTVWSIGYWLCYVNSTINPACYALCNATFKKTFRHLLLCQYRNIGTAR
The test can be described thus: cell-based.

Test [11] deals with trk A receptors (NGF receptor). The following applies: only when transfected with trk A; cited from earlier work.
Test [12] deals with certain alpha adrenergic receptors. Conditions: cited from earlier work.

As for `C[N+](C)(C)CCOC(N)=O` [carbachol], the “time to plateau of β-galactosidase induction” value at m2 muscarinic receptor [1] (m2/q-i5) and at m5 muscarinic receptor [2] (m5) was “about five” throughout. Further, the “induction of β-galactosidase levels” value on m2 muscarinic receptor [1] (m2/q-i5, time-course) is “significantly induce β-galactosidase levels”; on m5 muscarinic receptor [2] (m5, time-course), “significantly induce β-galactosidase levels”. For the same compound, the “effect on β-galactosidase levels” value at m2 muscarinic receptor [3] is “no effect on β-galactosidase levels”. Further, in the test on NIH 3T3 cells, the induction of responses entry is on record as “unable to induce responses”. On m5 muscarinic receptor [4], the focus response result is “robust ligand-dependent responses”.
Regarding `CN1[C@@H]2CC[C@H]1C[C@@H](OC(=O)C(CO)c1ccccc1)C2` (stereo partly shown) [atropine], the “block of agonist-stimulated phospholipase c, mitogenesis and foci” value in test [5] was “blocked”.
Consider `O=C(O)CCCCCC[C@H]1C(=O)CC[C@@H]1/C=C/[C@@H](O)COc1ccccc1` [MB28767], for which the concentration for a half-maximal effect (EC50) at EP3 prostanoid receptor is 0.27 ± 0.19 µM.
For the compound NT3: related neutrotrophic factor NT3, the “Ligand EC50” value was 0.0024 ± 0.0011 µg/mL at trk C receptor (Table 2) and more than 1 µg/mL at trk A receptor. Besides, in the test with trk C receptor (relative to other clones), the Rmax entry is “++++”.
With `C=CCN1CCc2nc(N)sc2CC1` [BHT 920], the half-maximal effective concentration (EC50) in [6] and in test [7] was more than 10 µM each time.
Take `CCN1CCc2nc(N)oc2CC1` [BHT 933]: the concentration for a half-maximal effect (EC50) in [6] and in test [8] was more than 10 µM in each case.
With `O[Si](CCCN1CCCCC1)(c1ccc(F)cc1)C1CCCCC1` (stereo not shown) [p-F-HHSiD], the inhibition constant Ki at m2 muscarinic receptor [9] was 0.501 µM; at m5 muscarinic receptor [10], 0.0794 µM; on m1 muscarinic receptor, 0.251 µM; on m3 muscarinic receptor it was 0.0316 µM; on m4 muscarinic receptor, 0.0501 µM.
With Nerve growth factor [NGF], the growth stimulation result in test [11] is on record as “stimulates growth”. Also, the “induction of amplification responses” value in the test on trk C receptor (data not shown) was “not able to induce amplification responses”.
Consider `NC[C@H](O)c1ccc(O)c(O)c1` [Norepinephrine], for which the “Max Response” value in test [7] (relative to other ligands at the receptor) is “+”. For the same compound, the growth stimulation result in [12] is reported as “stimulates”.
